Results from US20230123334A1, “AMINO LIPID COMPOUND, PREPARATION METHOD THEREFOR, AND APPLICATION THEREOF” (SHENZHEN SHENXIN BIOTECHNOLOGY CO., LTD., priority 2020, published 2023).

These compounds were tested on HEK293 cells (assay: Preliminary screening as DNA vectors, GFP transfection of HEK293 cells). Settings: HEK293 cells; lipid/DOPE liposome with 75 ng plasmid DNA (psin-EGFP-IRES-Puro); number of cells expressing GFP divided by total number of nuclei (Hoechst).
Format: cell-based
Outline: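 Lipid + DOPE liposomes (NaOAc, pH 5.6) complexed w/ 75 ng psin-EGFP-IRES-Puro, 30 min RT; added to 3-5×10^4 HEK293/well, 37° C. Hoechst 0.2 μg/mL at 20-24 h, imaged after further 20-24 h. Efficiency = GFP+ cells / total nuclei.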

Row | Compound | Absolute DNA transfection efficiency in HEK293 cells
1 | CCCCCCCCCCCCN(CCCCCCCCCCCC)c1nc(NCCCCCCCCCCC)nc(NCCCN2CCOCC2)n1 [Compound N112N12D8] | 0.0%

Same assay, conditions: amino lipid/DOPE liposome with 75 ng plasmid DNA (psin-EGFP-IRES-Puro); number of GFP-expressing cells divided by total nuclei (Hoechst)

Row | Compound | Absolute DNA transfection efficiency in HEK293 cells
2 | CCCCCCCNc1nc(NCCN2CCN(C)CC2)nc(SCCCCCCC)n1 [S7N7 D5] | 33.5%
3 | CCCCCCCCCCCCSc1nc(NCCCCCCC)nc(NCCN2CCN(C)CC2)n1 [S12N7 D5] | 3.6%
4 | CCCCCCCCCCCCCCSc1nc(NCCCCCCCC)nc(NCCN2CCN(C)CC2)n1 [S14N8 D5] | 19.6%
5 | CCCCCCCCCCCCCCCNc1nc(NCCN2CCCC2)nc(SCCCCCCCCCCCCCC)n1 [S14N15 D3] | 1.0%
6 | CCCCCCCCCCCCCCCCCCNc1nc(NCCN2CCCCC2)nc(SCCCCCCCCCCCC)n1 [S12N18 D4] | 0.3%
7 | CCCCCCCCCCCCN(CCCCCCCCCCCC)c1nc(NCCCN(C)C)nc(SCCCCCCCCC)n1 [S9^2N12 D6] | 1.1%
8 | CCCCCCCCCCCCCCSc1nc(NCCCCCCCCCCC)nc(NCC2CCN(C)CC2)n1 [S14N11 D10] | 9.0%
9 | CCCCCCCCCCCCCCCCCCNc1nc(NCCCN(C)C)nc(SCCCCCCCCCCCC)n1 [S12N18 D6] | 0.6%
10 | CCCCCCCCCCCCCCCCCCSc1nc(NCCCCCCCC)nc(NCCN2CCCCC2)n1 [S18N8 D4] | 3.9%
11 | CCCCCCCCCCCCCCCCCCSc1nc(NCCCCCC)nc(NCCN(CC)CC)n1 [S18N6 D7] | 10.4%
12 | CCCCCCCCCCCCCCCSc1nc(NCCN2CCCC2)nc(SCCCCCC)n1 [S6S15 D3] | 14.5%
13 | CCCCCCCCCCCCCCSc1nc(NCCCCCCCCCCCCC)nc(NCC2CCN(C)CC2)n1 [S14N13 D10] | 2.2%
14 | CCCCCCNc1nc(NCCCN(C)C)nc(SCCCCCC)n1 [S6N6 D6] | 0.0%
15 | CCCCCCCCCCCCCCSc1nc(NCCCCCCCCCCCCC)nc(NCCCN2CCN(C)CC2)n1 [S14N13 D9] | 1.4%
16 | CCCCCCCCCCCCCCCNc1nc(NCCN2CCN(C)CC2)nc(SCCCCCCCCCC)n1 [S10N15 D5] | 3.2%
17 | CCCCCCCCCCCCCNc1nc(NCCCN2CCN(C)CC2)nc(SCCCCCCC)n1 [S7N13 D9] | 36.9%
18 | CCCCCCCCCCSc1nc(NCCCCCCCC)nc(NCCN2CCCCC2)n1 [S10N8 D4] | 2.1%
19 | CCCCCCCCCCCCN(CCCCCCCCCCCC)c1nc(NCCN2CCCCC2)nc(SCCCCCCCC)n1 [S8^2N12 D4] | 0.0%
20 | CCCCCCCCCCSc1nc(NCCN2CCCC2)nc(SCCCCCCCC)n1 [S8S10 D3] | 8.9%
21 | CCCCCCCCCCCCCCCCSc1nc(NCCCCCCCCC)nc(NCCN2CCCC2)n1 [S16N9 D3] | 13.7%
22 | CCCCCCCCCCCCNc1nc(NCC2CCN(C)CC2)nc(SCCCCCCCCCCCC)n1 [S12N12 D10] | 9.3%
23 | CCCCCCCCCCCCCCCNc1nc(NCCN2CCN(C)CC2)nc(SCCCCCCC)n1 [S7N15 D5] | 20.4%
24 | CCCCCCCCCCSc1nc(NCCCCCCC)nc(NCCN2CCCC2)n1 [S10N7 D3] | 7.4%
25 | CCCCCCCCCCCCCCCCCCSc1nc(NCCCCCC)nc(NCCN2CCOCC2)n1 [S18N6 D2] | 5.9%

Row | Compound | Absolute DNA transfection efficiency in HEK293 cells
26 | CCCCCCCCCCCCCCCCCCSc1nc(NCCCCCCCCCCCCC)nc(NCCN2CCN(C)CC2)n1 [S18N13 D5] | 0.0%
27 | CCCCCCCCCCCCCCSc1nc(NCCCCCC)nc(NCCN(CC)CC)n1 [S14N6 D7] | 20.3%
28 | CCCCCCCCCCCCCCCCSc1nc(NCCCCCCCCCCCCC)nc(NCCN2CCCC2)n1 [S16N13 D3] | 1.5%
29 | CCCCCCCCCCCCSc1nc(NCC2CCN(C)CC2)nc(N(CCCCCCCCCCCC)CCCCCCCCCCCC)n1 [S12^2N12 D10] | 0.1%
30 | CCCCCCCCCCCCCCCCSc1nc(NCCCCCCC)nc(NCCN2CCOCC2)n1 [S16N7 D2] | 16.6%
31 | CCCCCCCCCCCCCCCSc1nc(NCCCCCCCCCCC)nc(NCCN2CCOCC2)n1 [S15N11 D2] | 19.3%
32 | CCCCCCCCCCCNc1nc(NCC2CCN(C)CC2)nc(SCCCCCCC)n1 [S7N11 D10] | 45.9%
33 | CCCCCCCCNc1nc(NCCN2CCOCC2)nc(SCCCCCCC)n1 [S7N8 D2] | 2.7%
34 | CCCCCCNc1nc(NCCN2CCCCC2)nc(SCCCCCC)n1 [S6N6 D4] | 0.0%
35 | CCCCCCCCCCCCCCCCCCNc1nc(NCCN2CCOCC2)nc(SCCCCCCCC)n1 [S8N18 D2] | 2.6%
36 | CCCCCCNc1nc(NCCN2CCN(C)CC2)nc(SCCCCCC)n1 [S6N6 D5] | 0.0%
37 | CCCCCCSc1nc(NCC2CCN(C)CC2)nc(SCCCCCC)n1 [S6S6 D10] | 21.6%
38 | CCCCCCCCCCCCCCCCCCNc1nc(NCCN(C)C)nc(SCCCCCCCCCCCC)n1 [S12N18 D1] | 0.7%
39 | CCCCCCCCCCCCCCCCCCNc1nc(NCC2CCN(C)CC2)nc(SCCCCCCCCCC)n1 [S10N18 D10] | 3.8%
40 | CCCCCCCCCCCCSc1nc(NCCN2CCCC2)nc(SCCCCCCCC)n1 [S8S12 D3] | 10.9%
41 | CCCCCCCCCCCNc1nc(NCC2CCN(C)CC2)nc(SCCCCCCCC)n1 [S8N11 D10] | 46.3%
42 | CCCCCCCCCCCCCCCCCCNc1nc(NCCN2CCCCC2)nc(SCCCCCCCCCC)n1 [S10N18 D4] | 4.9%
43 | CCCCCCCCCCCCCCCNc1nc(NCCCN2CCOCC2)nc(SCCCCCCCCCCCC)n1 [S12N15 D8] | 0.0%
44 | CCCCCCCCCCCCN(CCCCCCCCCCCC)c1nc(NCC2CCN(C)CC2)nc(SCCCCCCC)n1 [S7^2N12 D10] | 0.5%
45 | CCCCCCCCCCCCNc1nc(NCCN(CC)CC)nc(SCCCCCCCCC)n1 [S9N12 D7] | 12.4%
46 | CCCCCCCCCCCCN(CCCCCCCCCCCC)c1nc(NCCCN2CCN(C)CC2)nc(SCCCCCCCCCCC)n1 [S11^2N12 D9] | 0.0%
47 | CCCCCCCCCCCCCCCCSc1nc(NCCCCCCCCCCC)nc(NCCN2CCCCC2)n1 [S16N11 D4] | 5.8%
48 | CCCCCCCCCCCCN(CCCCCCCCCCCC)c1nc(NCCN(CC)CC)nc(SCCCCCCCCC)n1 [S9^2N12 D7] | 0.2%
49 | CCCCCCCSc1nc(NCCN2CCOCC2)nc(SCCCCCC)n1 [S6S7 D2] | 1.2%

Row | Compound | Absolute DNA transfection efficiency in HEK293 cells
50 | CCCCCCCCCCCCCCSc1nc(NCCCCCCC)nc(NCCCN(C)C)n1 [S14N7 D6] | 25.0%
51 | CCCCCCCCCCCCCCCCNc1nc(NCCN2CCCCC2)nc(SCCCCCCCCCCCCCCC)n1 [S15N16 D4] | 0.4%
52 | CCCCCCCCCCCCCCCSc1nc(NCCCCCCC)nc(NCCCN2CCOCC2)n1 [S15N7 D8] | 14.5%
53 | CCCCCCCCCCCCCCCCCCSc1nc(NCCCCCCCCCCCC)nc(NCCN2CCOCC2)n1 [S18N12 D2] | 0.7%
54 | CCCCCCCCCCCNc1nc(NCCN2CCN(C)CC2)nc(SCCCCCCC)n1 [S7N11 D5] | 43.7%
55 | CCCCCCCCCCCCCCCCNc1nc(NCCN2CCCC2)nc(SCCCCCC)n1 [S6N16 D3] | 19.8%
56 | CCCCCCCCCCCCCCCCNc1nc(NCCCN(C)C)nc(SCCCCCCCCCCCC)n1 [S12N16 D6] | 2.1%
57 | CCCCCCCCSc1nc(NCCCCCCC)nc(NCCN2CCCC2)n1 [S8N7 D3] | 3.9%
58 | CCCCCCCSc1nc(NCCCCCC)nc(NCCN(CC)CC)n1 [S7N6 D7] | 11.2%
59 | CCCCCCCCCCCSc1nc(NCCN(C)C)nc(SCCCCCCCC)n1 [S8S11 D1] | 9.2%
60 | CCCCCCCCCCCSc1nc(NCCCCCCCC)nc(NCCN(C)C)n1 [S11N8 D1] | 19.8%
61 | CCCCCCCSc1nc(NCCCCCC)nc(NCCN2CCCCC2)n1 [S7N6 D4] | 8.7%
62 | CCCCCCCCCSc1nc(NCCCCCC)nc(NCCN2CCN(C)CC2)n1 [S9N6 D5] | 22.4%
63 | CCCCCCCCCCCCCCCSc1nc(NCCCCCCCC)nc(NCCN(C)C)n1 [S15N8 D1] | 8.9%
64 | CCCCCCCCCCSc1nc(NCCCCCCCCC)nc(NCCCN2CCOCC2)n1 [S10N9 D8] | 3.4%
65 | CCCCCCCCCCCNc1nc(NCCN(CC)CC)nc(SCCCCCCCC)n1 [S8N11 D7] | 24.6%
66 | CCCCCCCCCSc1nc(NCCCCCCCC)nc(NCCN(C)C)n1 [S9N8 D1] | 37.3%
67 | CCCCCCCCCCCCCCCNc1nc(NCCN(C)C)nc(SCCCCCCC)n1 [S7N15 D1] | 19.5%
68 | CCCCCCCCCCCCCCCSc1nc(NCC2CCN(C)CC2)nc(SCCCCCCC)n1 [S7S15 D10] | 33.3%
69 | CCCCCCNc1nc(NCCN(CC)CC)nc(SCCCCCC)n1 [S6N6 D7] | 0.0%
70 | CCCCCCCCCCCCCCCCSc1nc(NCCCCCCCCCCCC)nc(NCC2CCN(C)CC2)n1 [S16N12 D10] | 2.1%
71 | CCCCCCCCCCCCCCCCCCNc1nc(NCCCN2CCN(C)CC2)nc(SCCCCCCCC)n1 [S8N18 D9] | 5.3%
